Data on nine compounds can be found in US8426604B2 (Janssen Pharmaceutica NV, priority 2010, dated 2013).

Structures are written as SMILES.

This test addresses T1, ERR1 (also known as ERR-α or ERR-1) (Homo sapiens, UniProt P11474).
T1 sequence (P11474 193-421 limits assumed): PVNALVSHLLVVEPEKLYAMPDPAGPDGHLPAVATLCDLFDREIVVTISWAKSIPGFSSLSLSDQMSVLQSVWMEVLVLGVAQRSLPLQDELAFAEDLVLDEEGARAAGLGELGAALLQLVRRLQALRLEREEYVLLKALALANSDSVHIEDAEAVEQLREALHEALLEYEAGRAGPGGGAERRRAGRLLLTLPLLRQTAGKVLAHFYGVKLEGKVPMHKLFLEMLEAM
Description: TR-FRET assay (disruption of co-activator peptide binding). It is filed as biochemical. As to conditions: 6His-tagged ERR1LBD, GST-hSRC2 co-activator peptide; average of 3 independent experiments. The procedure:
Time-Resolved Fluorescence Resonance Energy Transfer (TR-FRET) experiments were performed to examine the functional response of ERR1 (also known as ERR-α or ERR-1) ligands. The TR-FRET assay described herein relied on the conformation of ERR1 for binding to a co-activator peptide: when a test compound binds to ERR1 and alters its conformation, it can disrupt the binding of the co-activator peptide. The components of this homogeneous secondary assay included: the ^6His-tagged-ERR1LBD, a GST-labeled-hSRC2 co-activator polypeptide and a fluorescent donor/acceptor pair from CIS bio international htrf/bioassays (Bedford, Mass.) using both an α-GST Europium Cryptate (Eu) label and an α^6His-XL665 (allophycocyanin) fluorophore.
For TR-FRET measurements, the reaction was buffered in 25 mM Tris pH 8, 2.5 mM Hepes, 20 mM KCl, 1 mM DTT, and 0.05 mg/mL BSA (-lipids). The final concentrations of reagents were 6 nM of ERR1LBD, 6 nM GST-SRC-2 peptide, 30 nM Eu cryptate, and 7.5 nM XL665. Reactions were allowed to reach equilibrium at 25° C. for 4-18 hours before collecting data on the Analyst from LJL Biosystems (Molecular Devices Sunnyvale, Calif.). As a time-resolved method, the samples were excited at […] and emission was collected for 1 ms at both 615 and 665 nm with delays of 400 and 75 μs, respectively. Dose response curves were fitted using a hyperbolic equation and the data reported is the average of 3 independent experiments.

Compound `CN(C1=NC(=O)/C(=C/c2ccc3c(cnn3Cc3ccc(Cl)cc3C(F)(F)F)c2)S1)[C@H]1CCNC[C@H]1F` [Compound 54, 5-({1-[4-Chloro-2-(trifluoromethyl)benzyl]-1H-indazol-5-yl}methylidene)-2-{[(3R,4S)-3-fluoropiperidin-4-yl](methyl)amino}-1,3-thiazol-4(5H)-one] gave an EC50 of 21 nM.

Consider `CN(C1=NC(=O)/C(=C/c2ccc3c(cnn3Cc3ccc(Cl)cc3C(F)(F)F)c2)S1)[C@H]1CCN(CC(N)=O)C[C@H]1F` [Compound 55, 2-[(3R,4S)-4-{[-5-({1-[4-Chloro-2-(trifluoromethyl)benzyl]-1H-indazol-5-yl}methylidene)-4-oxo-4,5-dihydro-1,3-thiazol-2-yl](methyl)amino}-3-fluoropiperidin-1-yl]acetamide], for which the concentration for a half-maximal effect (EC50) was 13 nM.

Regarding `CN(C1=NC(=O)/C(=C/c2ccc3c(cnn3Cc3ccc(C(F)(F)F)cc3C(F)(F)F)c2)S1)[C@@H]1CCN(CC(N)=O)C1` [Compound 56, 2-[(3R)-3-{[5-({1-[2,4-Bis(trifluoromethyl)benzyl]-1H-indazol-5-yl}methylidene)-4-oxo-4,5-dihydro-1,3-thiazol-2-yl](methyl)amino}pyrrolidin-1-yl]acetamide], the EC50 came to 15 nM.

As to `CN(C1=NC(=O)/C(=C/c2ccc3c(cnn3Cc3ccc(Cl)cc3C(F)(F)F)c2)S1)[C@@H]1CCN(CC(N)=O)C1` [Compound 57, 2-[(3R)-3-({5-[1-(4-Chloro-2-trifluoromethyl-benzyl)-1H-indazol-5-ylmethylene]-4-oxo-4,5-dihydro-thiazol-2-yl}-methyl-amino)-pyrrolidin-1-yl]-acetamide], the EC50 was 15 nM.

The compound `CN(CC(=O)O)C1=NC(=O)/C(=C/c2ccc3c(cnn3Cc3ccc(C(F)(F)F)cc3C(F)(F)F)c2)S1` [Compound 58, ({5-[1-(2,4-Bis-trifluoromethyl-benzyl)-1H-indazol-5-ylmethylene]-4-oxo-4,5-dihydro-thiazol-2-yl}-methyl-amino)-acetic acid] displayed a concentration for a half-maximal effect (EC50) of 38 nM.

In turn, `CN(C1=NC(=O)/C(=C/c2ccc3c(cnn3Cc3ccc(C(F)(F)F)cc3C(F)(F)F)c2)S1)[C@H]1C[C@@H](CO)N(CC(N)=O)C1` [Compound 59, 2-[4-({5-[1-(2,4-Bis-trifluoromethyl-benzyl)-1H-indazol-5-ylmethylene]-4-oxo-4,5-dihydro-thiazol-2-yl}-methyl-amino)-2-hydroxymethyl-pyrrolidin-1-yl]-acetamide] came in with a 50% effective concentration (EC50) of 27 nM.

Compound `CONC(=O)[C@H]1C[C@H](N(C)C2=NC(=O)/C(=C/c3ccc4c(cnn4Cc4ccc(Cl)cc4C(F)(F)F)c3)S2)CN1` [Compound 60, 4-({5-[1-(4-Chloro-2-trifluoromethyl-benzyl)-1H-indazol-5-ylmethylene]-4-oxo-4,5-dihydro-thiazol-2-yl}-methyl-amino)-pyrrolidine-2-carboxylic acid methoxy-amide] had a concentration giving a half-maximal response (EC50) of 25 nM.

In turn, `CN(CC(=O)O)C1=NC(=O)/C(=C/c2ccc3c(cnn3Cc3ccc(C(C)(C)O)cc3C(F)(F)F)c2)S1` [Compound 61, [(5-{1-[4-(1-Hydroxy-1-methyl-ethyl)-2-trifluoromethyl-benzyl]-1H-indazol-5-ylmethylene}-4-oxo-4,5-dihydro-thiazol-2-yl)-methyl-amino]-acetic acid] returned a concentration giving a half-maximal response (EC50) of 1200 nM.

The compound `CN(CC(=O)O)C1=NC(=O)/C(=C/c2ccc3c(cnn3Cc3ccc(O)cc3C(F)(F)F)c2)S1` [Compound 62, ({5-[1-(4-Hydroxy-2-trifluoromethyl-benzyl)-1H-indazol-5-ylmethylene]-4-oxo-4,5-dihydro-thiazol-2-yl}-methyl-amino)-acetic acid] had a concentration giving a half-maximal response (EC50) of 17 nM.
